Test system: P. syringae pv. tabaci
Assay: Squalene complementation of SQS1 RNAi line resistance to nonhost pathogen
Assay type: in vivo, Arabidopsis
Protocol: Squalene was supplied at the concentration as indicated above each panel when transplanting two-week old seedlings and thereafter watering. P. syringae pv. tabaci was infiltrated into leaves of four-week old plants at 1×10^7 cfu/ml. The inoculated plants were kept at 19-21° C. and covered to keep high humidity. Pictures were taken 3 days post inoculation
It was hypothesized that SQS1 RNAi lines would have less squalene compared to wild-type plants. Arabidopsis has two SQS genes: SQS1 and SQS2. T-DNA knockout lines for SQS2 are not available in SALK or GABI collections. Even though both SQS1 and SQS2 have more than 80% nucleotide identity, in the SQS1 RNAi line, only the transcripts of SQS1 was reduced but not SQS2 (FIG. 10). A brief pathway of sterol biosynthesis in plants and also other pathways that may be affected by silencing of SQS1 are shown in FIG. 11. […] It was therefore shown that squalene plays a critical role in conferring nonhost resistance against certain pathogens, and the role is recoverable in susceptible RNAi lines by squalene dosing.

## CC(C)=CCC/C(C)=C/CC/C(C)=C/CC/C=C(\C)CC/C=C(\C)CCC=C(C)C [squalene]
10 μM squalene fed, P. syringae pv. tabaci 1×10^7 cfu/ml, 3 days post inoculation
  recovery of nonhost resistance of SQS1 RNAi lines: completely recovered resistance phenotype back to wild-type levels
Squalene fed at 1 μM to 10 μM, P. syringae pv. tabaci
  recovery of nonhost resistance of SQS1 RNAi lines: recovered nonhost resistance in a dose dependent manner
